# Reference: patent publication US20220175738A1, “Tip60 Inhibitors and Methods of Use for Cardiovascular Disease” (The Medical College of Wisconsin, Inc., priority 2019, published 2022)
# System: wild-type rat neonatal CMs
# Assay: Neonatal CM cell culture model: proliferation and apoptosis (planned)
# Assay type: cell-based
# Conditions: low concentrations 0.1-3 μM, 24 hours; expected
# Excerpt: The cells will then be assessed for cell proliferation by direct cell counting and [3H]-thymidine incorporation as well as by immunostaining for Ki67, BrdU and pH3. Apoptosis will also be evaluated, by TUNEL labeling and by staining of caspase-3. All results will be confirmed using a minimum of three independent determinations, and statistical evaluation will be performed using ANOVA or a Student's t-test, as appropriate.
structure (smiles),measurement,value
c1cc(SSc2ccns2)sn1 [NU9056],"CM proliferation (cell counting, [3H]-thymidine, Ki67, BrdU, pH3)",promote CM proliferation
